From patent publication US9126979B2, “Compounds for inhibiting the interaction of BCL2 with binding partners” (Novartis AG, priority 2011, dated 2015)

Experiments:
[1] = target: BCL-2 binding to biotinylated BAD peptide (Homo sapiens (Human), UniProt P10415); assay: SPR (Biacore) solution inhibition assay, BCL-2 binding to BAD peptide surface; settings: read-out: BCL2_SPR IC50 BAD
From the text: (§1) The present method includes utility of a Surface plasmon resonance (SPR)-based biosensor (Biacore™′ GE Healthcare, Uppsala, Sweden) to characterize BCL-2 inhibitors.
(§2) Biacore™ utilizes the phenomenon of surface plasmon resonance (SPR) to detect and measure binding interactions. In a typical Biacore experiment, one of the interacting molecules (ligand) is immobilized on a flexible dextran matrix while the interacting partner (analyte) is allowed to flow across that surface. A binding interaction results in an increase in mass on the sensor surface and a corresponding direct change in the refractive index of the medium in the vicinity of the sensor surface. Changes in refractive index or signal are recorded in resonance units (R.U.) Signal changes due to association and dissociation of complexes are monitored in a non-invasive manner, continuously and in real-time, the results of which are reported in the form of a sensorgram.
(§3) The SPR assay is configured to examine solution inhibition of BCL-2 binding to peptide derivatized sensor surfaces to generate IC50 values as a measure of inhibitor potency.
(§4) Biacore™ A100 (GE Healthcare, Uppsala, Sweden) was used to conduct all experiments reported herein. Sensor surface preparation and all interaction analyses experiments were performed at 25° C. Reagents were purchased from GE Healthcare. Running buffer containing 10 mM Hepes, pH7.4, 150 mM sodium chloride, 1.25 mM Dithiothreitol, 3% Dimethyl sulfoxide and 0.05% polysorbate 20 were utilized throughout all analyses.
(§5) Biotinylated BAK, BAD and NOXA peptides were diluted to 10 nM in running buffer and captured onto a sensor surface pre-derivatized with streptavidin (sensor chip SA) to peptide surface densities in the range 50-100 R.U. Peptide captured surfaces were blocked with 50004 PEO2-Biotin.
(§6) Interaction analyses were performed by first equilibrating each sample within a 6 point three fold compound dilution series in the range […] with 56 nM BCL-2 for one hour during instrument start-up procedures. Protein compound mixtures were then injected over each peptide surface in parallel for 60 seconds at a flow-rate of 30 μL/min. 56 nM BCL-2 control samples were also prepared and run at regular intervals during the assay. Surface regeneration was performed at the end of each analysis cycle by two 30 second injections of 10 mM Glycine, pH 2.5, 1M Sodium Chloride, 0.05% polysorbate 20. Samples and control compound samples were run in duplicate and controls are also run at regular intervals during the assay to monitor surface and assay performance.
(§7) Data analyses are carried out using Biacore™ A100 evaluation software v1.1 to validate assay quality. Binding level report points were used relative to BCL-2 control samples to calculate % inhibition values for each compound protein mixture. […] The range of data shown in table 1 represents the high and low IC50 values obtained from multiple experiments.

[2] = target: BCL-2 binding to biotinylated BAK peptide (Homo sapiens (Human), UniProt P10415); assay: SPR (Biacore) solution inhibition assay, BCL-2 binding to BAK peptide surface; settings: read-out: BCL2_SPR IC50 BAK
From the text: as §1, §2, §3, §4, §5, §6, §7

BCL-2 binding to biotinylated BAD peptide, sequence (P10415 whole entry): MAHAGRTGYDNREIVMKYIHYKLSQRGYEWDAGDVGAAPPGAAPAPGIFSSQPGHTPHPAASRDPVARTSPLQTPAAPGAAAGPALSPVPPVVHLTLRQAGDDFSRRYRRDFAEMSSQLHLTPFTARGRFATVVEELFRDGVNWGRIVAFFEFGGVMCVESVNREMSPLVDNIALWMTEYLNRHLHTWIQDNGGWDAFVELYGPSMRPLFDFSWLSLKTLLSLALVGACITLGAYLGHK
BCL-2 binding to biotinylated BAK peptide, sequence (P10415 whole entry): as above

Structure (SMILES) | IC50 [1] | IC50 [2]
CCCCN(CCCC)C(=O)c1cc(C)n(-c2cc(OCC(=O)OCC)ccc2C(=O)N2Cc3ccccc3C[C@H]2CO)n1 [Example 4, [3-(3-Dibutylcarbamoyl-5-methyl-pyrazol-1-yl)-4-((S)-3-hydroxymethyl-3,4-dihydro-1H-isoquinoline-2-carbonyl)-phenoxy]-acetic acid ethyl ester] | 1170 to 1360 nM | 771 to 776 nM
CCCCN(CCCC)C(=O)c1cc(C)n(-c2cc(OCC(=O)Nc3ccccc3)ccc2C(=O)N2Cc3ccccc3C[C@H]2CO)n1 [Example 6, 1-[2-((S)-3-Hydroxymethyl-3,4-dihydro-1H-isoquinoline-2-carbonyl)-5-phenylcarbamoylmethoxy-phenyl]-5-methyl-1H-pyrazole-3-carboxylic acid dibutylamide] | 2090 to 2100 nM | 1270 to 1300 nM
CCCCN(CCCC)C(=O)c1cc(C)n(-c2cc(OCC(=O)OCc3ccccc3)ccc2C(=O)N2Cc3ccccc3C[C@H]2CO)n1 [Example 7, [3-(3-Dibutylcarbamoyl-5-methyl-pyrazol-1-yl)-4-((S)-3-hydroxymethyl-3,4-dihydro-1H-isoquinoline-2-carbonyl)-phenoxy]-acetic acid benzyl ester] | 1520 to 1560 nM | 1250 to 1320 nM
CCCCN(CCCC)C(=O)c1cc(C)n(-c2cc(OCC(=O)Nc3ccccc3F)ccc2C(=O)N2Cc3ccccc3C[C@H]2CO)n1 [Example 8] | 2880 to 3000 nM | 1700 to 1740 nM
CCCCN(CCCC)C(=O)c1nn(-c2ccc(OC)cc2C(=O)N2Cc3ccccc3C[C@H]2CO)c(C)c1Cl [Example 10] | 1370 to 1690 nM | 815 to 969 nM

Now those with a lower IC50 [1], led by results:

IC50 [1] | IC50 [2] | Structure (SMILES)
509 to 515 nM | 363 to 405 nM | CCCCN(CCCC)C(=O)c1nn(-c2ccc(OCC(=O)OCC)cc2C(=O)N2Cc3ccccc3C[C@H]2CO)c(C)c1Cl [Example 1, [4-(4-Chloro-3-dibutylcarbamoyl-5-methyl-pyrazol-1-yl)-3-((S)-3-hydroxymethyl-3,4-dihydro-1H-isoquinoline-2-carbonyl)-phenoxy]-acetic acid ethyl ester]
149 to 153 nM | 132 to 138 nM | CCCCN(CCCC)C(=O)c1nn(-c2ccc(OCC(=O)O)cc2C(=O)N2Cc3ccccc3C[C@H]2CO)c(C)c1Cl [Example 2, [4-(4-Chloro-3-dibutylcarbamoyl-5-methyl-pyrazol-1-yl)-3-((S)-3-hydroxymethyl-3,4-dihydro-1H-isoquinoline-2-carbonyl)-phenoxy]-acetic acid]
433 to 477 nM | 406 to 437 nM | CCCCN(CCCC)C(=O)c1nn(-c2ccc(OCC(=O)Nc3ccccc3)cc2C(=O)N2Cc3ccccc3C[C@H]2CO)c(C)c1Cl [Example 3, 4-Chloro-1-[2-((S)-3-hydroxymethyl-3,4-dihydro-1H-isoquinoline-2-carbonyl)-4-phenylcarbamoylmethoxy-phenyl]-5-methyl-1H-pyrazole-3-carboxylic acid dibutylamide]
98.9 to 105 nM | 82.3 to 87.3 nM | CCCCN(CCCC)C(=O)c1cc(C)n(-c2cc(OCC(=O)O)ccc2C(=O)N2Cc3ccccc3C[C@H]2CO)n1 [Example 5, [3-(3-Dibutylcarbamoyl-5-methyl-pyrazol-1-yl)-4-((S)-3-hydroxymethyl-3,4-dihydro-1H-isoquinoline-2-carbonyl)-phenoxy]-acetic acid]
618 to 629 nM | 403 to 441 nM | CCCCN(CCCC)C(=O)c1nn(-c2ccc(O)cc2C(=O)N2Cc3ccccc3C[C@H]2CO)c(C)c1Cl [Example 9]
258 to 299 nM | 238 to 256 nM | CCCCN(CCCC)C(=O)c1cc(C)n(-c2cc(O)ccc2C(=O)N2Cc3ccccc3C[C@H]2CO)n1 [Example 11]
447 to 493 nM | 267 to 299 nM | CCCCN(CCCC)C(=O)c1cc(C)n(-c2cc(OC)ccc2C(=O)N2Cc3ccccc3C[C@H]2CO)n1 [Example 12]
